Like-named read-outs stand apart in the source and are kept apart here. Numbered stars: 1 amine (or outer) side, 2 acyl side, 3 side chain; on linkers, the order of the positions; unused ones are H or OH. Square brackets hold non-standard residues; d marks the D form. Peptide text beside a SMILES is read from it. * marks the point of attachment. dNMeW = CN[C@H](Cc1c[nH]c2ccccc12)C(=O)O; 3Abz = Nc1cccc(C(=O)O)c1; Nva = CCC[C@H](N)C(=O)O; Boc = CC(C)(C)OC(=O)*; CO = O=C([*:1])[*:2]; NHBn = c1ccc(CN*)cc1; NHPh = c1ccc(N*)cc1; OBn = c1ccc(CO*)cc1; βAla = NCCC(=O)O

Test [1] deals with isolated guinea pig trachea. The experiment in a line: Activities against endothelin-induced contraction of isolated guinea pig trachea. The conditions noted are these: 6 μM compound; for shift of the concentration-response curve for endothelin-1: added 20 minutes prior to endothelin-1. As to the method:
The trachea of a guinea pig was extracted, and the trachea was cut into rings to afford a preparation.
Endothelin-1 was added into the organ bath in a cumulatively increasing manner, and the influence of a compound of the present invention to the concentration-response curve for endothelin was examined. The compound was added into the organ bath 20 minutes prior to the addition of endothelin-1.

The test system of test [2] is isolated porcine coronary artery. The experiment in a line: Activities against endothelin-induced contraction of isolated porcine coronary arteries. Set-up: species or system pig. The conditions noted are these: for shift of the concentration-response curve of endothelin-1: added 20 minutes prior to endothelin-1. As to the method: The coronary artery of pig was extracted, and a spiral preparation having a width of 1 mm and a length of 10 mm was prepared therefrom.
Endothelin-1 was added into the organ bath in a cumulatively increasing manner, whereby the influence of a compound of the present invention to the concentration-response curve for endothelin-1 was examined. The compound was added into the organ bath 20 minutes prior to the addition of endothelin-1.

The target of test [3] is T1, endothelin receptor (membrane of smooth muscle tissue of porcine aorta) (Sus scrofa, UniProt Q29010).
T1 construct: from tissue; host or cells: porcine aorta smooth muscle, membrane fraction
T1 sequence (Q29010 21-427): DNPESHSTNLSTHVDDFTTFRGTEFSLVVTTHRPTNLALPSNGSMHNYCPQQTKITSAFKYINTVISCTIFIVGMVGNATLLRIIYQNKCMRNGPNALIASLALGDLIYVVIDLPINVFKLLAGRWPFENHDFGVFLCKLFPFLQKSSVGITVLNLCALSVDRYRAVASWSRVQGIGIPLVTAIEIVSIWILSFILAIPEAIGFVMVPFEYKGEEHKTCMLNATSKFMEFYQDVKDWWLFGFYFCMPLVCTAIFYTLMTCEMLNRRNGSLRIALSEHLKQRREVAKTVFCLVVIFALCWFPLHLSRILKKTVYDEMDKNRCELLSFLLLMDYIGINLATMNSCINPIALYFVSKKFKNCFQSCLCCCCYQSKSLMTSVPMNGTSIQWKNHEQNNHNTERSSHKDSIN
The experiment in a line: Endothelin binding inhibition test (125I-endothelin-1, porcine aorta smooth muscle membrane). Particulars: read-out: 125I-endothelin-1 binding inhibition; for inhibition at 10 µM: 10 μM test compound (marked *). As to the method: The smooth muscle tissue of porcine aorta was homogenized in a buffer solution of 10 mM MOPS, pH 7.4, at 4° C. by a polytron. To the homogenate, sucrose was added to a concentration of 20%, and the mixture was centrifuged at 1,000×g for 15 minutes, and the supernatant was further centrifuged at 10,000×g for 15 minutes. The supernatant thereof was further centrifuged at 90,000×g for 40 minutes. The membrane precipitate thereby obtained was suspended in a buffer solution of 5 mM HEPES/Tris, pH 7.4, at a concentration of 25 mg/ml.
Then, 16 μl of this membrane suspension was added to 340 μl of 50 mM Tris/HCl buffer, pH 7.4, containing 10 μM calcium chloride, 10 μM magnesium chloride, 0.1 mM PMSF, 1 μM pepstatin A, 2 μM leupeptin, 1 mM 1,10-phenanthroline and 0.1% bovine serum albumin. To this suspension, 4 μl of (A) endothelin-1 (for nonspecific binding; 0.2 μM as the final concentration), (B) buffer solution A (for total control binding), or (C) a test compound (1.1 μM or 10 μM as the final concentration),was added. Further, to each suspension, 40 μl of ^125 I-endothelin-1 (12000-18000 cpm) was added. These mixtures were incubated at 25° C. for 4 hours, then subjected to filtration on a glass filter GF/C and then washed with 5 mM HEPES/Tris, pH 7.4, containing 0.3% bovine serum albumin. Then, the radioactivity trapped by the glass filter was measured, and the ^125 I-endothelin-1 binding inhibition D (%) at 1.1 μM or 10 μM of the test compound was determined by the following equation. [formula] Each test was performed in triplicate.
The test compounds are indicated by Compound Nos.

For the next test, the system named is isolated rat heart. The experiment in a line: Effects on the increased perfusion pressure induced by endothelin in isolated rat heart (Langendorff). As to the method:
The heart of a male Sprague Dohrie (SD) rat was extracted, and the perfusion pressure was measured and recorded according to the Langendorff's method.
Endothelin-1 was cumulatively added to the perfusate, whereby the influence of a compound of the present invention to the concentration-response curve for endothelin-1 was examined. The compound which was dissolved in the perfusate had been infused from 20 minutes prior to the addition of endothelin-1 till just after finishing measurement of the concentration-response curve for endothelin-1.

The inhibition is the share of the control response that was lost under treatment. With `CC(C)C[C@H](NC(=O)N1CCCCCC1)C(=O)N[C@H](Cc1c[nH]c2ccccc12)C(=O)NCCC(=O)O` [Compound 93], in test [1], the “maximum response to endothelin-1” value is “did not affect the maximum response” and the “shift of the concentration-response curve for endothelin-1” value is “remarkably shifted the concentration-response curves for endothelin-1 to the right”. In test [2] (6 μM compound), the “maximum response to endothelin-1” value was “did not affect the maximum response” and the “shift of the concentration-response curve of endothelin-1” value is “remarkably shifted the concentration-response curves of endothelin-1 to the right”. Moreover, the inhibition at 1.1 µM in test [3] (1.1 μM test compound (no mark)) was 78%.

On to `CC(C)C[C@H](NC(=O)N1CCCCCC1)C(=O)N[C@H](Cc1c[nH]c2ccccc12)C(=O)N[C@H](Cc1c[nH]c2ccccc12)C(=O)O` [Compound 50], for which the “maximum response to endothelin-1 (perfusion pressure)” value in the test with isolated rat heart (1 μM compound) was “did not affect the maximum response”. The “shift of the concentration-response curve for endothelin-1 (perfusion pressure)” value in the test on isolated rat heart (1 μM compound in perfusate from 20 minutes prior to endothelin-1) is recorded as “moved the concentration-response curve for endothelin-1to the right”. Also, in test [1], the “maximum response to endothelin-1” value is given as “did not affect the maximum response” and the “shift of the concentration-response curve for endothelin-1” value is reported as “remarkably shifted the concentration-response curves for endothelin-1 to the right”. In test [2] (2 μM compound), the “maximum response to endothelin-1” value was “did not affect the maximum response” and the “shift of the concentration-response curve of endothelin-1” value is reported as “remarkably shifted the concentration-response curves of endothelin-1 to the right”. In test [3], the inhibition at 1.1 µM came out at 87%.

As to `CC(C)C[C@H](NC(=O)OC(C)(C)C)C(=O)N[C@H](Cc1c[nH]c2ccccc12)C(=O)N[C@H](Cc1ccccc1)CS(=O)(=O)O` [Compound 26], the inhibition at 10 µM in test [3] was 36%.

With `CC(C)C[C@H](NC(=O)OC(C)(C)C)C(=O)N[C@H](Cc1c[nH]c2ccccc12)C(=O)NNCC(=O)O` [Compound 148], in test [3], the inhibition at 10 µM was found to be 82%.

With `CCC[C@H](NC(=O)OC(C)(C)C)C(=O)N[C@H](Cc1c[nH]c2ccccc12)C(=O)NCCC(=O)O` [Compound 28] (Boc-[Nva]-[dW]-[βAla]-OH), the inhibition at 1.1 µM in test [3] (1.1 μM test compound (no mark)) stood at 38%.

`CC(C)C[C@H](NC(=O)c1cccs1)C(=O)N[C@H](Cc1c[nH]c2ccccc12)C(=O)NCCC(=O)O` [Compound 55]: the inhibition at 1.1 µM in test [3] (1.1 μM test compound (no mark)) came to 54%.

On to `CC(C)C[C@H](NC(=O)OC(C)(C)C)C(=O)N[C@H](Cc1c[nH]c2ccccc12)C(=O)NN(CC(=O)O)Cc1ccccc1` [Compound 149], for which, in test [3], the inhibition at 10 µM is 58%.

For `CC[C@H](C)[C@H](NC(=O)OC(C)(C)C)C(=O)N[C@H](Cc1c[nH]c2ccccc12)C(=O)NCCC(=O)O` [Compound 54] (Boc-Ile-[dW]-[βAla]-OH), the inhibition at 1.1 µM in test [3] (1.1 μM test compound (no mark)) stood at 39%.

With `CC(C)C[C@H](NC(=O)OC(C)(C)C)C(=O)N[C@H](Cc1c[nH]c2ccccc12)C(=O)N[C@@H](C(=O)O)c1cccs1` [Compound 42], the inhibition at 1.1 µM in test [3] (1.1 μM test compound (no mark)) was 56%.

For the compound `CC(C)C[C@H](NC(=O)OC(C)(C)C)C(=O)N[C@H](Cc1c[nH]c2ccccc12)C(=O)N[C@@H](CC(=O)O)C(=O)Nc1ccccc1` [Compound 45] (Boc-Leu-[dW]-Asp-NHPh), the inhibition at 10 µM in test [3] stood at 39%.

Regarding `CC(C)C[C@H](NC(=O)N(C)c1ccccc1)C(=O)N[C@H](Cc1c[nH]c2ccccc12)C(=O)NCCC(=O)O` [Compound 76], in test [3] (1.1 μM test compound (no mark)), the inhibition at 1.1 µM worked out at 52%.

For the compound `CC(C)C[C@H](NC(=O)OC(C)(C)C)C(=O)N[C@H](Cc1c[nH]c2ccccc12)C(=O)N[C@H](CC(=O)OCc1ccccc1)C(N)=O` [Compound 35] (Boc-Leu-[dW]-[dD](OBn)-NH2), the inhibition at 1.1 µM in test [3] (1.1 μM test compound (no mark)) was 35%.

As for `CC(C)C[C@H](NC(=O)OC(C)(C)C)C(=O)N[C@H](Cc1c[nH]c2ccccc12)C(=O)N[C@H](CC(C)C)C(=O)O` [Compound 3] (Boc-Leu-[dW]-[dL]-OH), the inhibition at 1.1 µM in test [3] (1.1 μM test compound (no mark)) was determined as 31%.

As to `CC(C)C[C@H](NC(=O)OC(C)(C)C)C(=O)N[C@H](Cc1c[nH]c2ccccc12)C(=O)NCC(=O)NCC(=O)O` [Compound 23] (Boc-L[dW]GG-OH), in test [3] (1.1 μM test compound (no mark)), the inhibition at 1.1 µM stood at 33%.

For the compound `CC(C)C[C@H](NC(=O)OC(C)(C)C)C(=O)N[C@H](Cc1c[nH]c2ccccc12)C(=O)N[C@H](Cc1c[nH]c2ccccc12)C(=O)O` [Compound 2] (Boc-Leu-[dW]-[dW]-OH), the inhibition at 1.1 µM in test [3] (1.1 μM test compound (no mark)) worked out at 83%.

In the case of `CC(C)C[C@H](NC(=O)OC(C)C)C(=O)N[C@H](Cc1c[nH]c2ccccc12)C(=O)NCCC(=O)O` [Compound 71], in test [3] (1.1 μM test compound (no mark)), the inhibition at 1.1 µM turned out to be 29%.

As for `CC(C)C[C@H](NC(=O)OC(C)(C)C)C(=O)N(C)[C@H](Cc1c[nH]c2ccccc12)C(=O)NCCC(=O)O` [Compound 32] (Boc-Leu-[dNMeW]-[βAla]-OH), the inhibition at 10 µM in test [3] is 32%.

In the case of `CC(C)C[C@H](NC(=O)OC(C)(C)C)C(=O)N[C@H](Cc1c[nH]c2ccccc12)C(=O)N[C@H](Cc1ccc(O)cc1)C(=O)O` [Compound 138] (Boc-Leu-[dW]-[dY]-OH), the inhibition at 1.1 µM in test [3] (1.1 μM test compound (no mark)) was 72%.

`CC(C)C[C@H](NC(=O)OC(C)(C)C)C(=O)N[C@H](Cc1c[nH]c2ccccc12)C(=O)Nc1cccc(C(=O)O)c1` [Compound 12] (Boc-Leu-[dW]-[3Abz]-OH): in test [3] (1.1 μM test compound (no mark)), the inhibition at 1.1 µM stood at 31%.

`CC(C)C[C@H](NC(=O)NCc1ccccc1)C(=O)N[C@H](Cc1c[nH]c2ccccc12)C(=O)NCCC(=O)O` [Compound 115] ({NHBn-CO}-Leu-[dW]-[βAla]-OH): in test [3] (1.1 μM test compound (no mark)), the inhibition at 1.1 µM worked out at 33%.

For the compound `CC(C)C[C@H](NC(=O)N1CCCCCC1)C(=O)N[C@H](Cc1c[nH]c2ccccc12)C(=O)NCCC(=O)NS(=O)(=O)c1ccccc1` [Compound 157], the inhibition at 1.1 µM in test [3] turned out to be 69%.

Source of the values: patent US5470833A, “Endothelin antagonistic peptide derivatives” (Banyu Pharmaceutical Co., Ltd., priority 1990, dated 1995).
